{
  "source": "patent US5994334A",
  "about": "“Androgen synthesis inhibitors” (priority 1997, dated 1999)",
  "key": {"[1]": {"target": "T1, human 17α-hydroxylase/C17,20-lyase (Homo sapiens, UniProt P05093)", "T1 construct": "incubating human testicular microsomes; from tissue; host or cells: human testis, microsomes", "T1 sequence (P05093 1-508)": "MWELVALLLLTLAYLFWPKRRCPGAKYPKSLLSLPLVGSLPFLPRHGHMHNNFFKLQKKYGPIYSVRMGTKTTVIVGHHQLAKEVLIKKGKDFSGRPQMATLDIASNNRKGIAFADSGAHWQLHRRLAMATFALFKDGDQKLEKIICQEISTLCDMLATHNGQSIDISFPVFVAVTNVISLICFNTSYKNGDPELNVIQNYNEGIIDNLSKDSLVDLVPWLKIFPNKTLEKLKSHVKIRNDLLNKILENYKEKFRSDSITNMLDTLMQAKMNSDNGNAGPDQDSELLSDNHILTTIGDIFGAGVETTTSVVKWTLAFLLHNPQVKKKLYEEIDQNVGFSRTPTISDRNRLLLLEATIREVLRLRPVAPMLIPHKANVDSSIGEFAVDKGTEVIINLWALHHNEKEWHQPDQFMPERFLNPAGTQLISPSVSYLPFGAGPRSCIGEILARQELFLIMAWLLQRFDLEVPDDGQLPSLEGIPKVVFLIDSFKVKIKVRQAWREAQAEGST", "assay": "Inhibition of human testicular 17α-hydroxylase/C17,20-lyase (enzyme complex as a whole)", "format": "biochemical", "method": "(§1) The conversion of radiolabeled pregnenolone to 17α-hydroxypregnenolone and DHEA by 17α-hydroxylase/C17,20 -lyase was measured by incubating human testicular microsomes with different concentration of test compounds. Reverse phase HPLC was used to separate and accurately quantify the amount of substrate and metabolites. The 17α-hydroxylase and C17,20 -lyase activities were calculated separately. The activity of 17α-hydroxylase was calculated from the conversion of pregnenolone to 17α-hydroxypregnenolone and DHEA and the activity of C17,20 -lyase was based on the conversion of pregnenolone to DHEA. Although 17α-hydroxypregnenolone is the substrate converted to DHEA by C17,20 -lyase, it has been reported that this 17α-hydroxy intermediate is not released from the enzyme binding site during conversion (Nakajin et al., 1981a,b). Also, there are species differences in substrate requirements. Pregnenolone is the natural substrate rather than progesterone for human testicular 17α-hydroxylase and C17,20 -lyase. Therefore, pregnenolone was used as substrate for measuring the activity of this enzyme complex."}, "[2]": {"target": "T2, Human Testicular 17α-Hydroxylase (Homo sapiens, UniProt P05093)", "T2 construct": "incubating human testicular microsomes; from tissue; host or cells: human testis, microsomes", "T2 sequence (P05093 1-508)": "T1 sequence (P05093 1-508)", "assay": "Inhibition of human testicular 17α-hydroxylase (pregnenolone substrate, testicular microsomes)", "format": "biochemical", "details": "for inhibition at 0.1 µM: 100 nM, read-out: % Inhibition 17α-hydroxylase, [I] = 100 nM; for inhibition at 0.4 µM: read-out: % Inhibition 17α-hydroxylase, [I] = 400 nM", "method": "as §1"}, "[3]": {"target": "T3, Human Testicular C17,20-lyase (Homo sapiens, UniProt P05093)", "T3 construct": "incubating human testicular microsomes; from tissue; host or cells: human testis, microsomes", "T3 sequence (P05093 1-508)": "T1 sequence (P05093 1-508)", "assay": "Inhibition of human testicular C17,20-lyase (pregnenolone substrate, testicular microsomes)", "format": "biochemical", "details": "for inhibition at 0.1 µM: read-out: % Inhibition C17,20-lyase, [I] = 100 nM; for inhibition at 0.4 µM: read-out: % Inhibition C17,20-lyase, [I] = 400 nM", "method": "as §1"}, "[4]": {"target": "T4, Human Prostatic 5α-Reductase (Homo sapiens, UniProt P31213)", "T4 sequence (P31213 1-254)": "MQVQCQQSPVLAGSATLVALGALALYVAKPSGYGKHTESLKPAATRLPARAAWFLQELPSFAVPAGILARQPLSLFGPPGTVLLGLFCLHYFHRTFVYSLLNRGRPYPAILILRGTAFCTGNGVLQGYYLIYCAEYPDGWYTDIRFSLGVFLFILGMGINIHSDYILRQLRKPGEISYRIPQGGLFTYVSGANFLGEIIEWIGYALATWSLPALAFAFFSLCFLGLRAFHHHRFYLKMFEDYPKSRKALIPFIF", "assay": "Inhibition of human prostatic 5α-reductase (prostatic microsomes, [3H]testosterone)", "details": "for pIC50: IC50 5α-reductase; for inhibition at 0.1 µM: read-out: % Inhibition of 5α-reductase, [I] 100 nM; for inhibition at 0.01 µM: read-out: % Inhibition of 5α-reductase, [I] 10 nM", "experimental": "The 5α-reductase assay is performed by incubating human prostatic microsomes (approx. 0.6 mg protein in 0.5 ml phosphate buffer) with [7-^3 H]testosterone (10 mM. 6×10^5 dpm) with a NADPH generating system (NADP 0.65 mM; glucose-6-phosphate 7.1 mM; glucose-6-phosphate dehydrogenase 2.5 IU in 100 μl phosphate buffer) and candidate inhibitors at concentrations of 10 nM and 100 nM under oxygen for 30 min at 37° C. […] The steroids are extracted with ether and separated by chromatography on TLC (chloroform:ether 80:20). […] The steroids are scraped from the plate and radioactivity measured."}, "[5]": {"details": "Table 1, NI = no inhibition, read-out: IC50 17α-OHase"}, "[6]": {"details": "Table 1, NI = no inhibition, CI = complete inhibition, read-out: IC50 C17,20 lyase"}},
  "note": "pIC50: −log10 of the molar value. Entries after “also recorded” stand apart in the source; their conditions may differ. Like-named read-outs stand apart in the source and are kept apart here.",
  "data": [
    {"smiles": "C[C@]12CC[C@H]3[C@@H](CC=C4C[C@@H](O)CC[C@@]43C)[C@@H]1CC[C@@H]2c1ncc[nH]1", "note": "[Compound L-1]", "values": [
      {"measurement": "inhibition of 17α-hydroxylase/C17,20-lyase (in words)", "setting": "[1]; NI = no inhibition", "result": "poor inhibition of 17α-hydroxylase/C17,20 -lyase"},
      {"measurement": "inhibition at 0.1 µM", "setting": "[2]; first figure of pair", "result": 22.8, "unit": "%"},
      {"measurement": "inhibition at 0.4 µM", "setting": "[2]; 400 nM, first figure of pair", "result": 23.7, "unit": "%"},
      {"measurement": "inhibition at 0.1 µM", "setting": "[3]; 100 nM, second figure of pair", "result": 73.9, "unit": "%"},
      {"measurement": "inhibition at 0.4 µM", "setting": "[3]; 400 nM, second figure of pair", "result": 100, "unit": "%"}
    ]},
    {"smiles": "Cc1nc([C@H]2CC[C@H]3[C@@H]4CC=C5C[C@@H](O)CC[C@]5(C)[C@H]4CC[C@]23C)co1", "note": "[Compound L-5]", "values": [
      {"measurement": "inhibition of 17α-hydroxylase/C17,20-lyase (in words)", "setting": "[1]; NI = no inhibition", "result": "less inhibition"},
      {"measurement": "inhibition at 0.1 µM", "setting": "[2]; first figure of pair", "result": 22.4, "unit": "%"},
      {"measurement": "inhibition at 0.4 µM", "setting": "[2]; 400 nM, first figure of pair", "result": 26.5, "unit": "%"},
      {"measurement": "inhibition at 0.1 µM", "setting": "[3]; 100 nM, second figure of pair", "result": 71.2, "unit": "%"},
      {"measurement": "inhibition at 0.4 µM", "setting": "[3]; 400 nM, second figure of pair", "result": 81.7, "unit": "%"}
    ]},
    {"smiles": "C[C@H](N)[C@H]1CC[C@H]2[C@@H]3CC=C4C[C@@H](O)CC[C@]4(C)[C@H]3CC[C@]12C", "note": "[Compound I-10]", "values": [
      {"measurement": "inhibition of 17α-hydroxylase/C17,20-lyase (in words)", "setting": "[1]; NI = no inhibition", "result": "poor inhibition"},
      {"measurement": "pIC50", "setting": "[2]; [5]", "result": 5.01},
      {"measurement": "pIC50", "setting": "[3]; [6]", "result": 5.10}
    ]},
    {"smiles": "C[C@]12CCC(=O)C=C1CC[C@@H]1[C@@H]2CC[C@]2(C)C(c3c[nH]cn3)=CC[C@@H]12", "note": "[Compound L-6, 17β-(4'-imidazolyl)-androsta-4,16-dien-3-one]", "values": [
      {"measurement": "inhibition of 17α-hydroxylase/C17,20-lyase (in words)", "setting": "[1]; NI = no inhibition", "result": "potent inhibitors"},
      {"measurement": "times more potent than ketoconazole", "setting": "[1]; vs ketoconazole", "result": "10-50 times"},
      {"measurement": "pIC50", "setting": "[2]; [5]", "result": 7.80},
      {"measurement": "pIC50", "setting": "[2]; Table 3, first figure of 17α-hydroxylase/lyase pair, read-out: IC50 17α-hydroxylase", "result": 7.81},
      {"measurement": "pIC50", "setting": "[2]; first figure of pair, read-out: IC50 17α-hydroxylase", "result": 7.80},
      {"measurement": "pIC50", "setting": "[3]; second figure of pair, read-out: IC50 C17,20-lyase", "result": 8.70},
      {"measurement": "pIC50", "setting": "[4]", "result": 6.28},
      {"measurement": "pIC50", "setting": "[4]; Table 2", "result": 6.28},
      {"measurement": "pIC50", "setting": "[4]; Table 3, NI = no inhibition", "result": 6.28},
      {"measurement": "inhibition of 5α-reductase (in words)", "setting": "[4]; NI = no inhibition", "result": "potent inhibitors; also recorded: potent inhibition of 5α-reductase"},
      {"measurement": "inhibition at 0.1 µM", "setting": "[4]", "result": 25.2, "unit": "%"}
    ]},
    {"smiles": "C[C@@H](O)C1=CC[C@H]2[C@@H]3CC=C4C[C@@H](O)CC[C@]4(C)[C@H]3CC[C@]12C", "note": "[Compound L-8]", "values": [
      {"measurement": "pIC50", "setting": "[1]; read-out: IC50 17α-hydroxylase/lyase (single entry), one value for 17α-hydroxylase/lyase, NI = no inhibition", "result": 7.00},
      {"measurement": "inhibition at 0.4 µM", "setting": "[2]", "result": 82.7, "unit": "%"},
      {"measurement": "inhibition at 0.1 µM", "setting": "[3]", "result": 66.2, "unit": "%"},
      {"measurement": "inhibition at 0.4 µM", "setting": "[3]", "result": 83.3, "unit": "%"},
      {"measurement": "inhibition at 0.01 µM", "setting": "[4]", "result": 37.1, "unit": "%"}
    ]},
    {"smiles": "CC(=O)[C@@]1(Br)CC[C@H]2[C@@H]3CC=C4C[C@@H](O)CC[C@]4(C)[C@H]3CC[C@@]21C", "note": "[Compound I-11]", "values": [
      {"measurement": "inhibition of 17α-hydroxylase/C17,20-lyase (in words)", "setting": "[1]; NI = no inhibition", "result": "poor inhibition"},
      {"measurement": "pIC50", "setting": "[2]; [5]", "result": 5.89},
      {"measurement": "pIC50", "setting": "[3]; [6]", "result": 6.01}
    ]},
    {"smiles": "CC(=O)[C@@]12O[C@@H]1C[C@H]1[C@@H]3CC=C4C[C@@H](O)CC[C@]4(C)[C@H]3CC[C@@]12C", "note": "[Compound I-17]", "values": [
      {"measurement": "inhibition of 17α-hydroxylase/C17,20-lyase (in words)", "setting": "[1]; NI = no inhibition", "result": "decreased potency"},
      {"measurement": "pIC50", "setting": "[2]; [5]", "result": 6.36},
      {"measurement": "pIC50", "setting": "[3]; [6]", "result": 6.17}
    ]},
    {"smiles": "C[C@]12CC[C@H]3[C@@H](CC=C4C[C@@H](O)CC[C@@]43C)[C@@H]1CC[C@@H]2[C@@]1(C)CO1", "note": "[Compound I-8]", "values": [
      {"measurement": "inhibition of 17α-hydroxylase/C17,20-lyase (in words)", "setting": "[1]; NI = no inhibition", "result": "significant inhibition"},
      {"measurement": "pIC50", "setting": "[2]; [5]", "result": 6.96},
      {"measurement": "pIC50", "setting": "[3]; [6]", "result": 6.85},
      {"measurement": "inhibition at 0.01 µM", "setting": "[4]", "result": 11.8, "unit": "%"},
      {"measurement": "inhibition at 0.1 µM", "setting": "[4]", "result": 16.3, "unit": "%"}
    ]}
  ]
}
